From ChEMBL document CHEMBL1201862, “PubChem BioAssay data set” (2004)
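Interpolation was linear, between the two tested concentrations surrounding the appropriate level; five concentrations were tested over 48 hours in 96-well plates. GI50: concentration for 50% inhibition of growth.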 Active and inactive are the calls of the source. Rule as the data show it: active = GI50 up to about 1.1 µM and inactive = higher.

Key:
Assay in all cases: NCI-60 cell line screen, 48 h
TK-10 = tested on: TK-10
NCI-H522 = tested on: NCI-H522
CCRF-CEM = tested on: CCRF-CEM
NCI-H460 = tested on: NCI-H460
COLO 205 = tested on: COLO 205
IGROV-1 = tested on: IGROV-1
HT-29 = tested on: HT-29
SN12C = tested on: SN12C
M14 = tested on: M14
ACHN = tested on: ACHN
LOX IMVI = tested on: LOX IMVI
OVCAR-8 = tested on: OVCAR-8
NCI-H226 = tested on: NCI-H226
RXF 393 = tested on: RXF 393
HL-60 = tested on: HL-60
SNB-75 = tested on: SNB-75
HCT-116 = tested on: HCT-116
HOP-62 = tested on: HOP-62
SW-620 = tested on: SW-620
HOP-18 = tested on: HOP-18
A498 = tested on: A498
SK-MEL-5 = tested on: SK-MEL-5
EKVX = tested on: EKVX
SF-295 = tested on: SF-295
OVCAR-3 = tested on: OVCAR-3
KM12 = tested on: KM12
UO-31 = tested on: UO-31
U-251 = tested on: U-251
NCI-H23 = tested on: NCI-H23
UACC-257 = tested on: UACC-257
M19-MEL = tested on: M19-MEL
Malme-3M = tested on: Malme-3M
LXFL 529 = tested on: LXFL 529
DLD-1 = tested on: DLD-1
SF-539 = tested on: SF-539
A549 = tested on: A549
SF-268 = tested on: SF-268
SNB-19 = tested on: SNB-19
DMS-114 = tested on: DMS-114
UACC-62 = tested on: UACC-62
SK-OV-3 = tested on: SK-OV-3
KM-20L2 = tested on: KM-20L2
HOP-92 = tested on: HOP-92
SR = tested on: SR
HCC 2998 = tested on: HCC 2998
SK-MEL-28 = tested on: SK-MEL-28
RXF 631 = tested on: RXF 631
OVCAR-5 = tested on: OVCAR-5
MOLT-4 = tested on: MOLT-4
K562 = tested on: K562
HCT-15 = tested on: HCT-15
786-0 = tested on: 786-0
RPMI-8226 = tested on: RPMI-8226
XF498 = tested on: XF498
DMS-273 = tested on: DMS-273
OVCAR-4 = tested on: OVCAR-4
CAKI-1 = tested on: CAKI-1
SNB-78 = tested on: SNB-78
SK-MEL-2 = tested on: SK-MEL-2

**Q.** How did the GI50 (TK-10) turn out when `C/C(=N\NC(N)=S)c1ccc(/C(C)=N/NC(N)=S)cc1` was run?
**A.** > 100 µM (inactive)

**Q.** What about the GI50 (NCI-H522) of the same compound?
**A.** > 100 µM (inactive)

**Q.** And the GI50 (CCRF-CEM)?
**A.** > 100 µM (inactive)

**Q.** What about the GI50 (NCI-H460) of the same compound?
**A.** > 100 µM (inactive)

**Q.** And the GI50 (COLO 205)?
**A.** > 100 µM (inactive)

**Q.** What about the GI50 (IGROV-1) of the same compound?
**A.** > 100 µM (inactive)

**Q.** And the GI50 (HT-29)?
**A.** > 100 µM (inactive)

**Q.** And the GI50 (SN12C)?
**A.** > 100 µM (inactive)

**Q.** What about the GI50 (M14) of the same compound?
**A.** > 100 µM (inactive)

**Q.** What about the GI50 (ACHN) of the same compound?
**A.** > 100 µM (inactive)

**Q.** What about the GI50 (LOX IMVI) of the same compound?
**A.** > 100 µM (inactive)

**Q.** And the GI50 (OVCAR-8)?
**A.** > 100 µM (inactive)

**Q.** And the GI50 (NCI-H226)?
**A.** > 100 µM (inactive)

**Q.** What about the GI50 (RXF 393) of the same compound?
**A.** > 100 µM (inactive)

**Q.** And the GI50 (HL-60)?
**A.** > 100 µM (inactive)

**Q.** And the GI50 (SNB-75)?
**A.** > 100 µM (inactive)

**Q.** What about the GI50 (HCT-116) of the same compound?
**A.** > 100 µM (inactive)

**Q.** What about the GI50 (HOP-62) of the same compound?
**A.** > 100 µM (inactive)

**Q.** What about the GI50 (SW-620) of the same compound?
**A.** > 100 µM (inactive)

**Q.** What about the GI50 (HOP-18) of the same compound?
**A.** > 100 µM (inactive)

**Q.** And the GI50 (A498)?
**A.** > 100 µM (inactive)

**Q.** And the GI50 (SK-MEL-5)?
**A.** > 100 µM (inactive)

**Q.** And the GI50 (EKVX)?
**A.** > 100 µM (inactive)

**Q.** And the GI50 (SF-295)?
**A.** > 100 µM (inactive)

**Q.** What about the GI50 (OVCAR-3) of the same compound?
**A.** > 100 µM (inactive)

**Q.** What about the GI50 (KM12) of the same compound?
**A.** > 100 µM (inactive)

**Q.** And the GI50 (UO-31)?
**A.** > 100 µM (inactive)

**Q.** And the GI50 (U-251)?
**A.** > 100 µM (inactive)

**Q.** What about the GI50 (NCI-H23) of the same compound?
**A.** > 100 µM (inactive)

**Q.** What about the GI50 (UACC-257) of the same compound?
**A.** > 100 µM (inactive)

**Q.** What about the GI50 (M19-MEL) of the same compound?
**A.** > 100 µM (inactive)

**Q.** What about the GI50 (Malme-3M) of the same compound?
**A.** > 100 µM (inactive)

**Q.** What about the GI50 (LXFL 529) of the same compound?
**A.** > 100 µM (inactive)

**Q.** What about the GI50 (DLD-1) of the same compound?
**A.** > 100 µM (inactive)

**Q.** And the GI50 (SF-539)?
**A.** > 100 µM (inactive)

**Q.** What about the GI50 (A549) of the same compound?
**A.** > 100 µM (inactive)

**Q.** What about the GI50 (SF-268) of the same compound?
**A.** > 100 µM (inactive)

**Q.** And the GI50 (SNB-19)?
**A.** > 100 µM (inactive)

**Q.** What about the GI50 (DMS-114) of the same compound?
**A.** > 100 µM (inactive)

**Q.** What about the GI50 (UACC-62) of the same compound?
**A.** > 100 µM (inactive)

**Q.** What about the GI50 (SK-OV-3) of the same compound?
**A.** > 100 µM (inactive)

**Q.** And the GI50 (KM-20L2)?
**A.** > 100 µM (inactive)

**Q.** And the GI50 (HOP-92)?
**A.** > 100 µM (inactive)

**Q.** What about the GI50 (SR) of the same compound?
**A.** > 100 µM (inactive)

**Q.** And the GI50 (HCC 2998)?
**A.** > 100 µM (inactive)

**Q.** And the GI50 (SK-MEL-28)?
**A.** > 100 µM (inactive)

**Q.** What about the GI50 (RXF 631) of the same compound?
**A.** > 100 µM (inactive)

**Q.** What about the GI50 (OVCAR-5) of the same compound?
**A.** > 100 µM (inactive)

**Q.** What about the GI50 (MOLT-4) of the same compound?
**A.** > 100 µM (inactive)

**Q.** What about the GI50 (K562) of the same compound?
**A.** > 100 µM (inactive)

**Q.** And the GI50 (HCT-15)?
**A.** > 100 µM

**Q.** What about the GI50 (786-0) of the same compound?
**A.** > 100 µM (inactive)

**Q.** And the GI50 (RPMI-8226)?
**A.** > 100 µM (inactive)

**Q.** And the GI50 (XF498)?
**A.** > 100 µM (inactive)

**Q.** Which GI50 (TK-10) does the source give for `CCOC(=O)C1=C(Nc2ccc(Cl)cc2Cl)OCC1=O` here?
**A.** > 100 µM (inactive)

**Q.** What about the GI50 (NCI-H522) of the same compound?
**A.** > 100 µM (inactive)

**Q.** What about the GI50 (NCI-H460) of the same compound?
**A.** > 100 µM (inactive)

**Q.** And the GI50 (COLO 205)?
**A.** > 100 µM (inactive)

**Q.** And the GI50 (IGROV-1)?
**A.** > 100 µM (inactive)

**Q.** And the GI50 (HT-29)?
**A.** > 100 µM (inactive)

**Q.** And the GI50 (SN12C)?
**A.** > 100 µM (inactive)

**Q.** What about the GI50 (M14) of the same compound?
**A.** > 100 µM (inactive)

**Q.** What about the GI50 (ACHN) of the same compound?
**A.** > 100 µM (inactive)

**Q.** And the GI50 (LOX IMVI)?
**A.** > 100 µM (inactive)

**Q.** What about the GI50 (OVCAR-8) of the same compound?
**A.** > 100 µM (inactive)

**Q.** What about the GI50 (NCI-H226) of the same compound?
**A.** > 100 µM (inactive)

**Q.** What about the GI50 (HL-60) of the same compound?
**A.** > 100 µM (inactive)

**Q.** What about the GI50 (SNB-75) of the same compound?
**A.** > 100 µM (inactive)

**Q.** What about the GI50 (HCT-116) of the same compound?
**A.** > 100 µM (inactive)

**Q.** And the GI50 (HOP-62)?
**A.** > 100 µM (inactive)

**Q.** What about the GI50 (DMS-273) of the same compound?
**A.** > 100 µM (inactive)

**Q.** And the GI50 (SW-620)?
**A.** > 100 µM (inactive)

**Q.** And the GI50 (SF-295)?
**A.** > 100 µM (inactive)

**Q.** What about the GI50 (OVCAR-3) of the same compound?
**A.** > 100 µM (inactive)

**Q.** And the GI50 (KM12)?
**A.** > 100 µM (inactive)

**Q.** And the GI50 (UO-31)?
**A.** > 100 µM (inactive)

**Q.** And the GI50 (OVCAR-4)?
**A.** > 100 µM (inactive)

**Q.** And the GI50 (U-251)?
**A.** > 100 µM (inactive)

**Q.** And the GI50 (NCI-H23)?
**A.** > 100 µM (inactive)

**Q.** And the GI50 (UACC-257)?
**A.** > 100 µM (inactive)

**Q.** What about the GI50 (M19-MEL) of the same compound?
**A.** > 100 µM (inactive)

**Q.** What about the GI50 (Malme-3M) of the same compound?
**A.** > 100 µM (inactive)

**Q.** What about the GI50 (LXFL 529) of the same compound?
**A.** > 100 µM (inactive)

**Q.** What about the GI50 (DLD-1) of the same compound?
**A.** > 100 µM (inactive)

**Q.** What about the GI50 (SF-539) of the same compound?
**A.** > 100 µM (inactive)

**Q.** What about the GI50 (A549) of the same compound?
**A.** > 100 µM (inactive)

**Q.** What about the GI50 (SF-268) of the same compound?
**A.** > 100 µM (inactive)

**Q.** And the GI50 (SNB-19)?
**A.** > 100 µM (inactive)

**Q.** What about the GI50 (CAKI-1) of the same compound?
**A.** > 100 µM (inactive)

**Q.** And the GI50 (SNB-78)?
**A.** > 100 µM (inactive)

**Q.** What about the GI50 (UACC-62) of the same compound?
**A.** > 100 µM (inactive)

**Q.** And the GI50 (SK-OV-3)?
**A.** > 100 µM (inactive)

**Q.** And the GI50 (KM-20L2)?
**A.** > 100 µM (inactive)

**Q.** What about the GI50 (HOP-92) of the same compound?
**A.** > 100 µM (inactive)

**Q.** What about the GI50 (SR) of the same compound?
**A.** > 100 µM (inactive)

**Q.** And the GI50 (HCC 2998)?
**A.** > 100 µM (inactive)

**Q.** What about the GI50 (SK-MEL-28) of the same compound?
**A.** > 100 µM (inactive)

**Q.** What about the GI50 (RXF 631) of the same compound?
**A.** > 100 µM (inactive)

**Q.** And the GI50 (OVCAR-5)?
**A.** > 100 µM (inactive)

**Q.** And the GI50 (MOLT-4)?
**A.** > 100 µM (inactive)

**Q.** And the GI50 (K562)?
**A.** > 100 µM (inactive)

**Q.** What about the GI50 (HCT-15) of the same compound?
**A.** > 100 µM

**Q.** And the GI50 (786-0)?
**A.** > 100 µM (inactive)

**Q.** And the GI50 (RPMI-8226)?
**A.** > 100 µM (inactive)

**Q.** And the GI50 (XF498)?
**A.** > 100 µM (inactive)

**Q.** What about the GI50 (SK-MEL-2) of the same compound?
**A.** > 100 µM (inactive)
